Laboratory results: DBAASP
≈ marks a conversion by molar mass, not a printed value. Values belong to the molecule of their own block, whether it stands above or below them.

Key:
Experiment in all cases: ≥ marks a high value that may be exact or a test limit, other limits are often not marked, values filed in µg/mL are converted to µM
Bacillus anthracis = tested on: Bacillus anthracis
Bacillus cereus = tested on: Bacillus cereus
Escherichia coli = tested on: Escherichia coli
Staphylococcus aureus = tested on: Staphylococcus aureus
[1] = tested on: Bacillus subtilis ATCC 6633
[2] = tested on: Candida albicans ATCC 20032
[3] = tested on: Escherichia coli ATCC 25922
[4] = tested on: Staphylococcus aureus ATCC 25923
[5] = tested on: Bacillus subtilis CCT 2576
[6] = tested on: Pseudomonas aeruginosa ATCC 15442
[7] = tested on: Staphylococcus aureus ATCC 6538
[8] = tested on: Escherichia coli DH5alpha
Staphylococcus xylosus = tested on: Staphylococcus xylosus
[9] = tested on: Micrococcus luteus ATCC 9341
Escherichia coli JM109 = tested on: Escherichia coli JM109
Bacillus subtilis = tested on: Bacillus subtilis
Candida albicans = tested on: Candida albicans
Cryptococcus neoformans = tested on: Cryptococcus neoformans
Pseudomonas putida = tested on: Pseudomonas putida
Saccharomyces cerevisiae = tested on: Saccharomyces cerevisiae
Salmonella typhimurium = tested on: Salmonella typhimurium
Serratia marcescens = tested on: Serratia marcescens
Streptococcus mutans = tested on: Streptococcus mutans
Streptococcus pneumoniae = tested on: Streptococcus pneumoniae

- MIC [5]: 1.24 µM (≈ 1.5 µg/mL)
- MIC [3]: 10.3 µM (≈ 12.5 µg/mL)
- MIC [6]: 1.4 µM (≈ 1.7 µg/mL)
- MIC [7]: 10.3 µM (≈ 12.5 µg/mL)
Compound: CC[C@H](C)[C@H](N)C(=O)N[C@@H](CC(C)C)C(=O)NCC(=O)N[C@H](C(=O)N[C@H](C(=O)N[C@@H](CC(C)C)C(=O)NCC(=O)N[C@@H](CC(C)C)C(=O)N[C@@H](CC(C)C)C(=O)N[C@@H](CCCCN)C(=O)NCC(=O)N[C@@H](CC(C)C)C(N)=O)[C@@H](C)CC)[C@@H](C)O [ILGTILGLLKGL]

- MIC [8]: ≥ 64 µM
- MIC (Staphylococcus xylosus): ≥ 64 µM
Compound: CC[C@H](C)[C@H](N)C(=O)N[C@@H](CC(C)C)C(=O)N[C@H](C(=O)N[C@@H](CCCCN)C(=O)N[C@@H](CCCN=C(N)N)C(=O)N[C@@H](CCCCN)C(=O)O)[C@@H](C)CC [ILIKRK]

- MIC [9]: 25 µM (≈ 38.5 µg/mL)
Compound: CC[C@H](C)[C@H](N)C(=O)N[C@@H](CC(C)C)C(=O)N1CCC[C@H]1C(=O)N[C@H](C(=O)N[C@@H](CCCCN)C(=O)N[C@H](C(=O)N1CCC[C@H]1C(=O)N[C@H](C(=O)N[C@H](C(=O)N1CCC[C@H]1C(=O)N[C@H](C(=O)N[C@@H](CCCN=C(N)N)C(=O)N[C@@H](CCCN=C(N)N)C(N)=O)[C@@H](C)CC)[C@@H](C)CC)[C@@H](C)CC)[C@@H](C)CC)[C@@H](C)CC [ILPIKIPIIPIRR]

- MIC [1]: 1.08 µM (≈ 2 µg/mL)
- MIC (Escherichia coli JM109): 4.31 µM (≈ 8 µg/mL)
Compound: CC[C@H](C)[C@H](N)C(=O)N[C@@H](CC(N)=O)C(=O)N[C@@H](Cc1c[nH]c2ccccc12)C(=O)N[C@@H](CCCCN)C(=O)N[C@@H](CCCCN)C(=O)N[C@H](C(=O)N[C@@H](C)C(=O)N[C@@H](CCC(=O)O)C(=O)N[C@H](C(=O)NCC(=O)NCC(=O)N[C@@H](CCCCN)C(=O)N[C@H](C(=O)N[C@@H](CC(C)C)C(=O)N[C@@H](CO)C(=O)N[C@@H](CO)C(=O)N[C@@H](CC(C)C)C(N)=O)[C@@H](C)CC)C(C)C)[C@@H](C)CC [INWKKIAEVGGKILSSL]

- MIC (Bacillus subtilis): ≥ 79.7 µM
- MIC (Candida albicans): > 159 µM
- MIC (Cryptococcus neoformans): ≥ 159 µM
- MIC (Escherichia coli): 159 µM (≈ 256 µg/mL)
- MIC (Pseudomonas putida): ≥ 159 µM
- MIC (Saccharomyces cerevisiae): ≥ 159 µM
- MIC (Salmonella typhimurium): ≥ 79.7 µM
- MIC (Serratia marcescens): ≥ 159 µM
- MIC (Staphylococcus aureus): 159 µM (≈ 256 µg/mL)
- MIC (Streptococcus mutans): ≥ 159 µM
- MIC (Streptococcus pneumoniae): ≥ 79.7 µM
Compound: CC(C)C[C@H](NC(=O)[C@H](CCCN=C(N)N)NC(=O)[C@H](Cc1cnc[nH]1)NC(=O)[C@@H](NC(=O)[C@H](CCCN=C(N)N)NC(=O)CNC(=O)[C@@H](NC(=O)[C@@H]1CCCN1C(=O)[C@H](Cc1ccccc1)NC(=O)[C@H](CCC(N)=O)NC(=O)[C@H](CC(C)C)NC(=O)CNC(=O)[C@H](C)NC(=O)[C@@H](N)CCCN=C(N)N)C(C)C)C(C)C)C(=O)O [RAGLQFPVGRVHRL]

- MIC (Bacillus subtilis): 0.738 µM (≈ 2 µg/mL)
- MIC (Candida albicans): 2.95 µM (≈ 8 µg/mL)
- MIC (Cryptococcus neoformans): 2.95 µM (≈ 8 µg/mL)
- MIC (Escherichia coli): 0.738 µM (≈ 2 µg/mL)
- MIC (Pseudomonas putida): 0.738 µM (≈ 2 µg/mL)
- MIC (Saccharomyces cerevisiae): 2.95 µM (≈ 8 µg/mL)
- MIC (Salmonella typhimurium): 0.369 µM (≈ 1 µg/mL)
- MIC (Serratia marcescens): 0.738 µM (≈ 2 µg/mL)
- MIC (Staphylococcus aureus): 0.369 µM (≈ 1 µg/mL)
- MIC (Streptococcus mutans): 0.738 µM (≈ 2 µg/mL)
- MIC (Streptococcus pneumoniae): 0.738 µM (≈ 2 µg/mL)
Compound: CC(C)C[C@H](NC(=O)[C@H](CC(C)C)NC(=O)[C@H](CCCN=C(N)N)NC(=O)[C@H](CCCN=C(N)N)NC(=O)[C@H](CC(C)C)NC(=O)[C@H](CC(C)C)NC(=O)[C@H](CCCN=C(N)N)NC(=O)[C@H](CCCN=C(N)N)NC(=O)[C@H](CC(C)C)NC(=O)[C@H](CC(C)C)NC(=O)[C@H](CCCN=C(N)N)NC(=O)[C@H](CCCN=C(N)N)NC(=O)[C@H](CC(C)C)NC(=O)[C@H](CC(C)C)NC(=O)[C@H](CCCN=C(N)N)NC(=O)[C@H](CCCN=C(N)N)NC(=O)[C@H](CC(C)C)NC(=O)[C@H](CC(C)C)NC(=O)[C@@H](N)CCCN=C(N)N)C(=O)N[C@@H](CCCN=C(N)N)C(=O)O [RLLRRLLRRLLRRLLRRLLR]

Continued, molecule first:

Compound: CC(C)C[C@H](NC(=O)[C@@H](NC(=O)[C@@H]1CCCN1C(=O)[C@H](CC(C)C)NC(=O)[C@@H](N)Cc1ccccc1)C(C)C)C(=O)N[C@H](C(=O)N[C@@H](CCCCN)C(=O)N[C@H](C(=O)N[C@@H](Cc1ccccc1)C(=O)N[C@@H](CCCN=C(N)N)C(=O)N[C@@H](Cc1ccc(O)cc1)C(=O)N[C@@H](CO)C(=O)N[C@@H](CCCCN)C(=O)N[C@@H](CCCCN)C(=O)N[C@H](C(=O)N[C@@H](C)C(=O)N[C@@H](C)C(=O)NCC(=O)N[C@@H](CS)C(=O)N[C@@H](Cc1ccccc1)C(=O)O)[C@@H](C)O)C(C)C)C(C)C [FLPVLVKVFRYSKKTAAGCF]
- MIC (Bacillus anthracis): ≥ 113 µM
- MIC (Bacillus cereus): 28.1 µM (≈ 64 µg/mL)
- MIC (Escherichia coli): > 56.3 µM
- MIC (Staphylococcus aureus): > 113 µM

Compound: CC[C@H](C)[C@H](N)C(=O)N[C@@H](CC(C)C)C(=O)NCC(=O)N1CCC[C@H]1C(=O)N[C@H](C(=O)N[C@H](C(=O)N[C@@H](CCCCN)C(=O)N[C@H](C(=O)N[C@H](C(=O)NCC(=O)NCC(=O)N[C@H](C(=O)N[C@H](C(=O)NCC(=O)NCC(=O)N[C@@H](CC(C)C)C(=O)N[C@@H](CC(C)C)C(=O)N[C@@H](CCCCN)C(=O)N[C@@H](CC(N)=O)C(=O)N[C@@H](CC(C)C)C(N)=O)[C@@H](C)CC)C(C)C)[C@@H](C)CC)[C@@H](C)O)[C@@H](C)CC)C(C)C [ILGPVIKTIGGVIGGLLKNL]
- MIC [1]: 9.52 µM (≈ 18.8 µg/mL)
- MIC [2]: 9.52 µM (≈ 18.8 µg/mL)
- MIC [3]: > 50.6 µM
- MIC [4]: 4.76 µM (≈ 9.4 µg/mL)

Compound: CC[C@H](C)[C@H](N)C(=O)N[C@@H](CC(C)C)C(=O)NCC(=O)N1CCC[C@H]1C(=O)N[C@H](C(=O)N[C@@H](CC(C)C)C(=O)NCC(=O)N[C@@H](CC(C)C)C(=O)N[C@H](C(=O)N[C@@H](CO)C(=O)N[C@@H](CC(N)=O)C(=O)N[C@H](C(=O)N[C@@H](CC(C)C)C(=O)N[C@@H](CC(=O)O)C(=O)N[C@@H](CC(=O)O)C(=O)N[C@H](C(=O)N[C@@H](CC(C)C)C(=O)NCC(=O)N[C@H](C(=O)N[C@@H](CC(C)C)C(N)=O)[C@@H](C)CC)C(C)C)[C@@H](C)O)C(C)C)C(C)C [ILGPVLGLVSNTLDDVLGIL]
- MIC [1]: ≥ 49.5 µM
- MIC [2]: ≥ 49.5 µM
- MIC [3]: > 49.5 µM
- MIC [4]: > 49.5 µM

Compound: CC(C)C[C@H](NC(=O)[C@H](CC(C)C)NC(=O)[C@H](CO)NC(=O)[C@H](CCCCN)NC(=O)[C@H](CC(C)C)NC(=O)[C@@H]1CCCN1C(=O)[C@H](C)NC(=O)[C@H](Cc1ccccc1)NC(=O)[C@@H]1CCCN1C(=O)[C@H](CC(C)C)NC(=O)[C@@H](NC(=O)[C@H](CCCCN)NC(=O)[C@H](CCCCN)NC(=O)[C@@H](NC(=O)[C@H](CO)NC(=O)[C@@H](N)C(C)C)C(C)C)C(C)C)C(=O)N[C@@H](CO)C(=O)N[C@@H](Cc1ccccc1)C(=O)N[C@@H](C)C(=O)N[C@@H](Cc1ccccc1)C(=O)O [VSVKKVLPFAPLKSLLSFAF]
- MIC (Bacillus anthracis): ≥ 117 µM
- MIC (Bacillus cereus): ≥ 117 µM
- MIC (Escherichia coli): 117 µM (≈ 256 µg/mL)
- MIC (Staphylococcus aureus): > 117 µM
